Experimental data as given in publication PMC7979765, “trans-Translation inhibitors bind to a novel site on the ribosome and clear Neisseria gonorrhoeae in vivo” (Nature Communications, 2021).
In brackets after ≈: the same amount, converted by molar mass. Several values for one entry are separate records, joined by “and”; a condition that tells them apart may be missing. Equal values may be shown once. Read-outs that look alike come from different tables or passages of the source.

Key:
[1] = test system: Acinetobacter baumannii; experiment: MIC, microbroth dilution; format: cell-based
[2] = test system: trans-translation; experiment: microbe, parasite or virus in culture; format: cell-based, Escherichia coli
[3] = test system: Pseudomonas aeruginosa; experiment: MIC, microbroth dilution; format: cell-based
[4] = test system: Escherichia coli; experiment: microbe, parasite or virus in culture; format: cell-based
[5] = Mammalian cell cytotoxicity (CC50); format: cell-based, human; conditions: human, HeLa cells (ATCC CCL-2)
Experimental: The half maximal cytotoxic concentration (CC50) of each compound against HeLa cells (ATCC CCL-2) was measured as previously described. […] The mean values for each biological replicate were averaged, and the CC50 was determined using a 4-parameter nonlinear curve fitting algorithm (GraphPad Prism). The average of the CC50s from two biological replicates was calculated and reported.

[6] = test system: Klebsiella pneumoniae; experiment: MIC, microbroth dilution; format: cell-based
[7] = test system: Staphylococcus aureus; experiment: MIC, microbroth dilution; format: cell-based

In the case of `O=C(Nc1nnc(-c2ccc(F)cc2)o1)N1CCc2ccccc2C1` [MBX-4132], the MIC ([1]; Acinetobacter baumannii ATCC 19606, replicates) is reported as no less than 34 µg/mL, the MIC ([1]; Acinetobacter baumannii, ATCC19606, Acinetobacter baumannii ATCC 19606, replicates, read-out: MIC) is reported as no less than 34 µg/mL and the MIC ([1]; Acinetobacter baumannii, ATCC19606, strain ATCC 19606, read-out: MIC) is reported as no less than 34 µg/mL. For the same compound, the IC50 ([2]; Escherichia coli, E. coli non-stop luciferase reporter, Fig. 1B, read-out: in vivo luc-trpAt IC50) was 0.6 µM, the fold induction at 0.046875 µM ([2]; Escherichia coli, read-out: fold induction, AVE 190919+190925, [4132] 0.046875 uM) was 1.01 and the fold induction at 0.0625 µM ([2]; Escherichia coli, read-out: fold induction, AVE 190919+190925, [4132] 0.0625 uM) was 0.976. It also gave a fold induction at 0.09375 µM ([2]; Escherichia coli, read-out: fold induction, AVE 190919+190925, [4132] 0.09375 uM) of 1.01, a fold induction at 0.125 µM ([2]; Escherichia coli, read-out: fold induction, AVE 190919+190925, [4132] 0.125 uM) of 1.05 and a fold induction at 0.1875 µM ([2]; Escherichia coli, read-out: fold induction, AVE 190919+190925, [4132] 0.1875 uM) of 1.2. It also gave a fold induction at 0.25 µM ([2]; Escherichia coli, read-out: fold induction, AVE 190919+190925, [4132] 0.25 uM) of 1.35, a fold induction at 0.375 µM ([2]; Escherichia coli, read-out: fold induction, AVE 190919+190925, [4132] 0.375 uM) of 1.66 and a fold induction at 0.5 µM ([2]; Escherichia coli, read-out: fold induction, AVE 190919+190925, [4132] 0.5 uM) of 2. It also gave a fold induction at 0.75 µM ([2]; Escherichia coli, read-out: fold induction, AVE 190919+190925, [4132] 0.75 uM) of 2.22, a fold induction at 1 µM ([2]; Escherichia coli, read-out: fold induction, AVE 190919+190925, [4132] 1 uM) of 2.22 and a fold induction at 1.5 µM ([2]; Escherichia coli, read-out: fold induction, AVE 190919+190925, [4132] 1.5 uM) of 2.16. It also gave a fold induction at 0.046875 µM ([2]; Escherichia coli, read-out: fold induction, AVE per run, [4132] 0.046875 uM, run 190919 or 190925) of 1.09, a fold induction at 0.0625 µM ([2]; Escherichia coli, read-out: fold induction, AVE per run, [4132] 0.0625 uM, run 190919 or 190925) of 1.02 and a fold induction at 0.09375 µM ([2]; Escherichia coli, read-out: fold induction, AVE per run, [4132] 0.09375 uM, run 190919 or 190925) of 1.04. For the same compound, the fold induction at 0.125 µM ([2]; Escherichia coli, read-out: fold induction, AVE per run, [4132] 0.125 uM, run 190919 or 190925) was 1.06, the fold induction at 0.1875 µM ([2]; Escherichia coli, read-out: fold induction, AVE per run, [4132] 0.1875 uM, run 190919 or 190925) was 1.16 and the fold induction at 0.25 µM ([2]; Escherichia coli, read-out: fold induction, AVE per run, [4132] 0.25 uM, run 190919 or 190925) was 1.35. For the same compound, the fold induction at 0.375 µM ([2]; Escherichia coli, read-out: fold induction, AVE per run, [4132] 0.375 uM, run 190919 or 190925) was 1.66, the fold induction at 0.5 µM ([2]; Escherichia coli, read-out: fold induction, AVE per run, [4132] 0.5 uM, run 190919 or 190925) was 1.82 and the fold induction at 0.75 µM ([2]; Escherichia coli, read-out: fold induction, AVE per run, [4132] 0.75 uM, run 190919 or 190925) was 1.93. The fold induction at 1 µM ([2]; Escherichia coli, read-out: fold induction, AVE per run, [4132] 1 uM, run 190919 or 190925) was 1.9, the fold induction at 1.5 µM ([2]; Escherichia coli, read-out: fold induction, AVE per run, [4132] 1.5 uM, run 190919 or 190925) was 1.86 and the “fold induction, AVE per run” value ([2]; [4132] 0.046875 uM, run 190919 or 190925, 0.046875 µM) was 0.9318. For the same compound, the “fold induction, AVE per run” value ([2]; [4132] 0.0625 uM, run 190919 or 190925, 0.0625 µM) was 0.9331, the “fold induction, AVE per run” value ([2]; [4132] 0.09375 uM, run 190919 or 190925, 0.09375 µM) was 0.9749 and the “fold induction, AVE per run” value ([2]; [4132] 0.125 uM, run 190919 or 190925, 0.125 µM) was 1.0347. The “fold induction, AVE per run” value ([2]; [4132] 0.1875 uM, run 190919 or 190925, 0.1875 µM) was 1.234, the “fold induction, AVE per run” value ([2]; [4132] 0.25 uM, run 190919 or 190925, 0.25 µM) was 1.356 and the “fold induction, AVE per run” value ([2]; [4132] 0.375 uM, run 190919 or 190925, 0.375 µM) was 1.653. The “fold induction, AVE per run” value ([2]; [4132] 0.5 uM, run 190919 or 190925, 0.5 µM) was 2.18, the “fold induction, AVE per run” value ([2]; [4132] 0.75 uM, run 190919 or 190925, 0.75 µM) was 2.51 and the “fold induction, AVE per run” value ([2]; [4132] 1 uM, run 190919 or 190925, 1 µM) was 2.546. The “fold induction, AVE per run” value ([2]; [4132] 1.5 uM, run 190919 or 190925, 1.5 µM) was 2.459, the MIC ([3]; Pseudomonas aeruginosa ATCC 27853, replicates) was no less than 34 µg/mL and the MIC ([3]; Pseudomonas aeruginosa, ATCC27853, Pseudomonas aeruginosa ATCC 27853, replicates, read-out: MIC) was no less than 34 µg/mL. The MIC ([3]; Pseudomonas aeruginosa, ATCC27853, strain ATCC 27853, read-out: MIC) was no less than 34 µg/mL, the MIC ([4]; E. coli KLE701 (ΔtolC::tet), source data, individual replicates) was 4.229 µg/mL (≈ 12.5 µM) and the MIC ([4]; Escherichia coli KLE700, replicates) was no less than 34 µg/mL. The MIC ([4]; Escherichia coli KLE701 (ΔtolC), replicates) was 2.11 µg/ml (4×) and 4.23 µg/ml (2×), the MIC ([4]; Escherichia coli, E. coli KLE701 (ΔtolC::tet), source data, individual replicates) was 2.11 µg/mL (≈ 6.25 µM) and the MIC ([4]; Escherichia coli, Escherichia coli KLE700, replicates, read-out: MIC) was no less than 34 µg/mL. For the same compound, the MIC ([4]; Escherichia coli, strain KLE700, read-out: MIC) was no less than 34 µg/mL, the MIC ([4]; Escherichia coli, strain KLE701, KLE700 ΔtolC::tet) was 2.8 µg/mL (≈ 8.28 µM) and the CC50 ([5]; HeLa cytotoxicity, value per replicate) was 22.2 µM. It also gave a CC50 ([5]; half-maximal cytotoxic concentration against HeLa cells) of 45 µM, an MIC ([6]; Klebsiella pneumoniae ATCC 13883, replicates) of no less than 34 µg/mL and an MIC ([6]; Klebsiella pneumoniae, ATCC13883, strain ATCC 13883, read-out: MIC) of no less than 34 µg/mL. For the same compound, the MIC ([7]; Staphylococcus aureus ATCC 25923, replicates) was 8.46 µg/mL (≈ 25 µM), the MIC ([7]; Staphylococcus aureus ATCC 35556, replicates) was 4.23 µg/mL (≈ 12.5 µM) and the MIC ([7]; Staphylococcus aureus BAA-1717, replicates) was 1 µg/mL (≈ 2.96 µM). For the same compound, the MIC ([7]; Staphylococcus aureus MRSA-1094, replicates) was 2.11 µg/mL and 4.23 µg/mL, the MIC ([7]; Staphylococcus aureus MRSA-1234547263, replicates) was 2.11 µg/mL and 4.23 µg/mL and the MIC ([7]; Staphylococcus aureus MSSA, replicates) was 2.11 µg/mL and 4.23 µg/mL. For the same compound, the MIC ([7]; Staphylococcus aureus N315, NRS-70, replicates) was 8.46 µg/mL (≈ 25 µM), the MIC ([7]; Staphylococcus aureus NRS-77, replicates) was 2.11 µg/mL and 4.23 µg/mL and the MIC ([7]; Staphylococcus aureus THC1516, replicates) was 0.5 µg/ml (3×) and 1 µg/ml (2×). The MIC ([7]; Staphylococcus aureus, ATCC25923, Staphylococcus aureus ATCC 25923, replicates, read-out: MIC) was 4.23 µg/mL (≈ 12.5 µM), the MIC ([7]; Staphylococcus aureus, ATCC25923, strain ATCC 25923, read-out: MIC) was 6.3 µg/mL (≈ 18.6 µM) and the MIC ([7]; Staphylococcus aureus, ATCC35556, Staphylococcus aureus ATCC 35556, replicates, read-out: MIC) was 4.23 µg/mL (≈ 12.5 µM). The MIC ([7]; Staphylococcus aureus, ATCC35556, strain ATCC 35556, read-out: MIC) was 4.2 µg/mL (≈ 12.4 µM), the MIC ([7]; Staphylococcus aureus, BAA1717, Staphylococcus aureus BAA-1717, replicates, read-out: MIC) was 1 µg/mL (≈ 2.96 µM) and the MIC ([7]; Staphylococcus aureus, BAA-1717 / MRSA, strain BAA-1717, MRSA, read-out: MIC) was 1 µg/mL (≈ 2.96 µM). For the same compound, the MIC ([7]; Staphylococcus aureus, MRSA / NRS 70, strain N315, NRS-70, MRSA, read-out: MIC) was 6.3 µg/mL (≈ 18.6 µM), the MIC ([7]; Staphylococcus aureus, MRSA, strain MRSA-1094, MRSA, read-out: MIC) was 3.2 µg/mL (≈ 9.46 µM) and the MIC ([7]; Staphylococcus aureus, MRSA, strain MRSA-1234547263, MRSA, read-out: MIC) was 3.2 µg/mL (≈ 9.46 µM). The MIC ([7]; Staphylococcus aureus, MRSA, strain THC1516, MRSA, read-out: MIC) was 1 µg/mL (≈ 2.96 µM), the MIC ([7]; Staphylococcus aureus, MSSA, strain MSSA, read-out: MIC) was 3.2 µg/mL (≈ 9.46 µM) and the MIC ([7]; Staphylococcus aureus, NRS70, Staphylococcus aureus N315, NRS-70, replicates, read-out: MIC) was 4.23 µg/mL (≈ 12.5 µM). It also gave an MIC ([7]; Staphylococcus aureus, NRS77, strain NRS-77, read-out: MIC) of 3.2 µg/mL (≈ 9.46 µM) and an MIC ([7]; Staphylococcus aureus, Staphylococcus aureus THC1516, replicates, read-out: MIC) of 0.5 µg/mL (≈ 1.48 µM).
